According to patent US5847074A, “Phospholipase C-inhibiting peptides” (Kyowa Hakko Kogyo Co., Ltd., priority 1993, dated 1998):
Values after ≈ are worked out from the molar mass of the structure shown. Where a SMILES comes first, the peptide text is derived from it. Bridges are numbered along the chain shown (N, C = ends). The star is where a group is joined. Octanoyl = CCCCCCCC(=O)*

Columns and labels:
PLC-γ1 = target: T1, PLC-γ1 (Bos taurus, UniProt P08487); test: PLC-inhibiting activity ([3H]PIP2 hydrolysis); type: biochemical; details: test peptide concentration 220 μM; PI-PLC-γ1 from bovine thymus; 37° C., 10 minutes
T1 construct: A sample of PLC-γ1 was prepared from bovine thymus; from tissue; host or cells: bovine thymus
T1 sequence (P08487 1-1291): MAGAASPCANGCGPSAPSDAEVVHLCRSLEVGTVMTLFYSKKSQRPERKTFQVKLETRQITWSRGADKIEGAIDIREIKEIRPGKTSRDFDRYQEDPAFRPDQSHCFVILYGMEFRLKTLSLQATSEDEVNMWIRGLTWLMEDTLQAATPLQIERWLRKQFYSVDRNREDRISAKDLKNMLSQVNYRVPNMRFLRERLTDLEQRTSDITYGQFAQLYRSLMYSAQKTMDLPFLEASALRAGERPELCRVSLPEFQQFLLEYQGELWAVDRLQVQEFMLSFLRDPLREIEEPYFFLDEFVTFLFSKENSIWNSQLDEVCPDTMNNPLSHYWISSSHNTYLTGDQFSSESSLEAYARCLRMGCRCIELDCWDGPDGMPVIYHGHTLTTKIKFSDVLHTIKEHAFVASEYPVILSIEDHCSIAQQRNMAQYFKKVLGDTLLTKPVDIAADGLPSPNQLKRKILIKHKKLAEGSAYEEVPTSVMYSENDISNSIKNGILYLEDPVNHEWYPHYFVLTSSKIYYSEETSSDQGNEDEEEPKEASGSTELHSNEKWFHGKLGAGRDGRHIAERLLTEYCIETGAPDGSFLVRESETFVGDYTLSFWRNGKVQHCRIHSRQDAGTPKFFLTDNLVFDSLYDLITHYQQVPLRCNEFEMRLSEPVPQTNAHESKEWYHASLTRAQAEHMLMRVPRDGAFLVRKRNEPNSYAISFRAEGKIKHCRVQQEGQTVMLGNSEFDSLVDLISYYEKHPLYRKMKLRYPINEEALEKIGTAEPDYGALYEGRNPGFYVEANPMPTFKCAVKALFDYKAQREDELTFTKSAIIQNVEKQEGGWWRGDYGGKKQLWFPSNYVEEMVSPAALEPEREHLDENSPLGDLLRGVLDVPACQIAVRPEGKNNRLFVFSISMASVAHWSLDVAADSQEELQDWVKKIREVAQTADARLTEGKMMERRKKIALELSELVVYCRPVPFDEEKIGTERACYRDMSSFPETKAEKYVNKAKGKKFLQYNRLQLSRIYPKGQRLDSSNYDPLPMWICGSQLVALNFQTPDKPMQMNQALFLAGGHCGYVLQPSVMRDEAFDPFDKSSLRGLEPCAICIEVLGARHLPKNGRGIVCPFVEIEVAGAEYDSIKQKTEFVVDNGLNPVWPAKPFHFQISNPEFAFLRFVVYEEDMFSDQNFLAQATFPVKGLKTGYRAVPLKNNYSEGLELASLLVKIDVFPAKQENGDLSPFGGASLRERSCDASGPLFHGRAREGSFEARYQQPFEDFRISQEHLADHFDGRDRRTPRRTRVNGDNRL
Method: A sample of PLC-γ1 was prepared from bovine thymus according to the method described in Y. Homma et al., Biochem.J., 269, 13 (1990).
A solution having the composition shown in Table 2 was prepared on ice and the reaction was initiated by heating it to 37° C. After incubation for 10 minutes, 2 ml of a chloroform-methanol (2:1, V/V) mixed solution was added to stop the reaction. The produced inositol phosphate was extracted with 0.5 ml of 1N hydrochloric acid. The extract was separated into two liquid phases by centrifugation (2000×g, 3 minutes) and the amount of ^3 H in the supernatant (0.7 ml) was measured with a scintillation counter. […]
Percent inhibition (X) was calculated from the following equation.
where A is the obtained value of specific radioactivity, B is the value of specific radioactivity when the same amount of water was added instead of an aqueous solution of a test peptide, and C is the value of specific radioactivity when the same amount of water was added instead of a sample and an aqueous solution of a test peptide.

KMS-4 cells = test: Cell proliferation-inhibiting activity (BrdU incorporation); type: cell-based; details: test peptide concentration 6 μM, incubation for 17 hours
Method: The cell proliferation-inhibiting activity of the test peptides was determined using a cell proliferation-detecting kit available from Amersham in the following manner. KMS-4 cells (M. Nanba et al., International Journal of Cancer, 32, 697 (1983)) were added to a DMEM medium containing a 10% fetal calf serum (available from Nissui Pharmaceutical) and the cell concentration was adjusted to 1-2×10^4 cells/ml. The resulting cell suspension (1 ml) was then placed in each well of a 24-well plate (available from Corning) and incubated in a CO2 incubator (37° C., 5% CO2) for 2 days. Subsequently, the medium was replaced with a fresh DMEM medium containing a 10% fetal calf serum, and a test peptide was added, followed by incubation for 17 hours. […] The number of cells which incorporated BrdU and the total number of cells were counted within one visual field (about 200 cells) under microscopic examination and the percentage (%) of the stained cell counts per visual field was calculated. […] Cell proliferation-inhibiting activity was expressed by percent cell proliferation inhibition (X) which was calculated from the following equation. […]

[1] = test system: Proteus vulgaris ATCC6897; type: cell-based; details: ATCC6897, pH 7
Method: Antimicrobial activity was determined by an agar dilution method using a medium consisting of Bacto-tryptone (available from Difco) (3 g/l), meat extract (1 g/l), glucose (1 g/l) and agar (16 g/l) (pH 7.0).

## CCCCCCCC(=O)N[C@H]1CSSC[C@@H](C(N)=O)NC(=O)[C@H](C(C)C)NC(=O)[C@@H]2CCCN2C(=O)[C@H](Cc2ccc(O)cc2)NC(=O)[C@H](CCCNC(=N)N)NC(=O)[C@H](CC(C)C)NC(=O)[C@H](CCCNC(=N)N)NC(=O)[C@H](CCSC)NC(=O)[C@H](CCCCN)NC(=O)[C@H](CCCNC(=N)N)NC(=O)[C@H](Cc2ccc(O)cc2)NC(=O)[C@H](CC(C)C)NC1=O [Compound (I-4)] (Octanoyl-CLYRKMRLRYPVC-NH2; disulfide 1-13)
PLC-γ1
  inhibition at 220 µM: 56%
KMS-4 cells
  Inhibition (%) of cell proliferation: 61%
[1]
  minimum inhibitory concentrations (MIC): 166 µg/mL (≈ 91 µM)
